From paper PMC9241943, “LcCCL28-25, Derived from Piscine Chemokine, Exhibits Antimicrobial Activity against Gram-Negative and Gram-Positive Bacteria In Vitro and In Vivo” (Microbiology Spectrum, 2022)
Residues, ends and D or L forms follow the SMILES beside them.

What was measured:
[1] = system: Staphylococcus aureus USA300; settings: S. aureus USA300
Protocol: The MIC assays were performed as previously described ([43]). Briefly, peptides were plated in a 2-fold dilution series (50 μL/well) of Mueller-Hinton broth (MHB) in Costar 96-well cell culture plates (Corning, NY, USA). Three repeats were set for each concentration. E. coli ATCC 25922, A. hydrophila ATCC 7966, P. aeruginosa PAO1, P. aeruginosa FRD1, S. aureus ATCC 25923, S. agalactiae ATCC 13813, S. pneumoniae ATCC 49619, methicillin-resistant S. aureus ATCC 43300, and methicillin-resistant S. aureus USA300 were cultured in Luria-Bertani (LB) medium, while K. pneumoniae CMCC46117 was cultured in tryptic soy broth (TSB) medium. Incubation was done at 37°C and 150 × g for 12 h. Bacteria were transferred to fresh MHB at a ratio of 1% (vol/vol) and incubated to reach a logarithmic growth phase. Then, 50 μL of a bacterial suspension at 4 × 10^6 CFU/mL was added to each well. After incubation at 37°C for 22 ± 2 h, turbidity was measured using an EnSpire multimode plate reader (PerkinElmer, Singapore) at 595 nm.

[2] = system: S. aureus ATCC 25923 cells; test: Scanning and transmission electron microscopy; format: cell-based, Staphylococcus aureus; settings: S. aureus ATCC 25923, 5 μg/mL, 15 min
Protocol: E. coli ATCC 25922 and S. aureus ATCC 25923 cells were cultured and coincubated with or without lcCCL28-25 as described above for fluorescence microscopy.
For scanning electron microscopy (SEM), bacterial cells were fixed with 2.5% glutaraldehyde in PBS (pH 7.35) and attached to 12-mm cover glasses by centrifugation at 75 × g for 6 min using a Cytospin 2 centrifuge (Thermo Fisher Scientific, Schwerte, Germany). Then, cover glasses with attached bacteria were postfixed in 1% aqueous OsO4 for 30 min, dehydrated in a sequence of increasing ethanol concentrations (70%, 80%, and 100%), and critical point dried in a CPD030 (Leica Microsystems, Vienna, Austria). Next, dried samples were mounted on aluminum stubs using conductive carbon tabs, coated with 4 nm of platinum in a CCU-010 sputtering device (Safematic, Bad Ragaz, Switzerland), and imaged by a Supra 50 VP SEM at an acceleration voltage of 2 kV using the in-lens secondary electron detector (Zeiss, Oberkochen, Germany) ([53]).
For transmission electron microscopy (TEM), bacterial cells were obtained by centrifugation after overnight fixation in 2.5% glutaraldehyde (pH 7.35, in PBS) at 4°C. […]

CSCC[C@H](NC(=O)[C@H](Cc1c[nH]c2ccccc12)NC(=O)[C@H](CCCCN)NC(=O)[C@@H]1CCCN1C(=O)[C@H](Cc1c[nH]cn1)NC(=O)[C@H](C)N)C(=O)N[C@@H](CCC(=O)O)C(=O)N[C@H](C(=O)N[C@H](C(=O)N[C@@H](CCCNC(=N)N)C(=O)N[C@@H](CO)C(=O)N[C@@H](CCCNC(=N)N)C(=O)N[C@@H](CCC(N)=O)C(=O)N[C@@H](CCCNC(=N)N)C(=O)N[C@@H](CCCCN)C(=O)N[C@@H](CCCCN)C(=O)N[C@@H](CCCCN)C(=O)N[C@@H](Cc1c[nH]cn1)C(=O)N[C@@H](CC(N)=O)C(=O)N[C@@H](CCCCN)C(=O)N[C@@H](CCCNC(=N)N)C(=O)N[C@@H](CCCNC(=N)N)C(=O)N[C@@H](C)C(=O)N[C@H](C(=O)N[C@@H](Cc1ccc(O)cc1)C(=O)O)[C@@H](C)O)C(C)C)C(C)C [lcCCL28-25] (H-AHPKWMEVVRSRQRKKKHNKRRATY-OH; N-terminus and C-terminus assumed)
decrease in antimicrobial activity with CaCl2 ([1]; 2.5 mM CaCl2 versus peptide only): 2 fold
decrease in antimicrobial activity with NaCl ([1]; 150 mM NaCl versus peptide only): 4 fold
reduction of antimicrobial activity under 10% serum ([1]; 10% mouse serum): 4 fold
reduction of antimicrobial activity under 20% serum ([1]; 20% mouse serum): 8 fold
reduction of antimicrobial activity under 40% serum ([1]; 40% mouse serum): 32 fold
membrane structure (TEM) [2]: significant alterations in membrane structure
